For this test, the system named is diabetic mice (db/db mice). Kind of test: Diabetic peripheral neuropathy in type II diabetic mice (db/db). The class given is in vivo, mouse. An excerpt:
DRG neurons play an important role in sensory conduction. Diabetic peripheral neuropathy is characterized by the loss and/or degeneration of neurons and the slowing of nerve conduction velocities. Using a mouse model of type II diabetes which develops severe peripheral neuropathy, we measured miR-146a expression in DRG neurons. […] FIG. 5H is quantitative data of caspase 3 positive cells. FIGS. 5I and J are neurological function measured by motor nerve conduction velocity (MCV, FIG. 5I) and sensory nerve conduction velocity (“SCV”, FIG. 5J). Red, blue, and black lines represent non-diabetic mice, diabetic mice treated with saline, and diabetic mice treated with sildenafil, respectively. *P<0.01 versus the nondiabetic group. #P<0.05 versus the diabetic group treated with saline. n=10/group. […] Elevation of miR-146a in DRG neurons by sildenafil rescued diabetes-induced DRG neuron death and improved neurological outcomes (FIG. 5).

Where [1] appears, read: diabetic mice treated with sildenafil.

In the case of `CCCc1nn(C)c2c(=O)[nH]c(-c3cc(S(=O)(=O)N4CCN(C)CC4)ccc3OCC)nc12` [sildenafil], under setting [1], the “diabetes-induced DRG neuron death (caspase 3 positive cells)” value is “rescued” and the “miR-146a in DRG neurons” value is “Elevation”. Further, the “neurological outcomes (MCV, SCV)” value (diabetic mice treated with sildenafil vs saline) is given as “improved”.
